Results on 31 molecules are retold here after patent publication US20230083012A1, “DIHYDROPYRIMIDINE DERIVATIVES AND USES THEREOF IN THE TREATMENT OF HBV INFECTION OR OF HBV-INDUCED DISEASES” (priority 2019, published 2023).

Each structure is given as a SMILES string. Bounds are passed on as bounds.

Data set [1] relates to HBV. In words: Anti-HBV activity in HepG2.2.15 cells (HBV DNA in culture medium by qPCR). Type of data set: cell-based. The conditions noted are these: Hepatitis B virus, HepG2.2.15, 144 h, HepG2.2.15 cells, 6 days treatment, HBV DNA in culture medium quantified by real-time PCR; read-out: EC50. A digest of the protocol:
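HepG2.2.15 cells in 2% FBS medium at 37 °C were treated with compounds for 6 days, with medium and compound refreshed at day 3; 1:3 dilutions, 8 concentrations in triplicate, top 10 or 1 uM. HBV DNA in culture medium quantified by qPCR to derive EC50; CC50 from parallel plates (top 100 uM).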
In general terms: Quantitative PCR measures a nucleic acid by following its amplification.

Data set [2] can be described thus: Cytotoxicity determination in HepG2.2.15 cells (CCK-8 cell viability). Type of data set: cell-based. The settings on record: human, 6 days treatment, CCK-8 assay, highest concentration 100 uM. A digest of the protocol:
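HepG2.2.15 cells seeded at 5,000 cells/well in 2% FBS medium, exposed 6 days to compounds (8-point 1:3 dilutions from 100 uM, triplicate), refreshed at day 3. Viability read by CCK-8 after 2.5 h at 37° C, absorbance 450 nm with 630 nm reference; CC50 calculated.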
In general terms: Tetrazolium dyes change colour on reduction, which living cells bring about.

Consider `CCOC(=O)C1=C(CN2CC(F)(F)C3C(=O)N(C[C@@H](CC)C(=O)O)C[C@@H]32)NC(c2nccs2)=N[C@H]1c1cccc(F)c1C` (single isomer, unassigned) [Compound 182A], for which the EC50 in data set [1] came out at 0.0239 µM. For the same molecule, the CC50 at 6 days in data set [2] worked out at 49.6 µM.
As for `CCOC(=O)C1=C(CN2CC(F)(F)[C@@H]3C(=O)N(C[C@H](CC)C(=O)O)C[C@@H]32)NC(c2nccs2)=N[C@H]1c1cccc(F)c1C` (single isomer, unassigned) [Compound 182B], the EC50 in data set [1] was 0.0113 µM. In data set [2], this molecule showed a 50% cytotoxic concentration (CC50) at 6 days of 33.3 µM.
The matching figures for `CCOC(=O)C1=C(CN2CC(F)(F)[C@@H]3CN(C[C@@H](CC)C(=O)O)C(=O)C32)NC(c2nccs2)=N[C@H]1c1cccc(F)c1C` (single isomer, unassigned) [Compound 183A]: 0.0143 µM and 40.3 µM.
For `CCOC(=O)C1=C(CN2CC(F)(F)[C@@H]3CN(C[C@H](CC)C(=O)O)C(=O)[C@@H]32)NC(c2nccs2)=N[C@H]1c1cccc(F)c1C` (single isomer, unassigned) [Compound 183B], the 50% effective concentration (EC50) in data set [1] was found to be 0.0064 µM. Further, the CC50 at 6 days in data set [2] was found to be 50.2 µM.
The matching figures for `CCOC(=O)C1=C(CN2CC(F)(F)[C@@H]3C(=O)N(CC4(C(=O)O)CC4)C[C@@H]32)NC(c2nccs2)=N[C@H]1c1cccc(F)c1C` (single isomer, unassigned) [Compound 184]: 0.0067 µM and 48.3 µM.
The corresponding values for `CCOC(=O)C1=C(CN2CC(F)(F)[C@@H]3CN([C@H]4CC[C@@H](C(=O)O)CC4)C(=O)[C@@H]32)NC(c2nccs2)=N[C@H]1c1cccc(F)c1C` (single isomer, unassigned) [Compound 185A] are 0.0054 µM and 48.3 µM.
As to `CCOC(=O)C1=C(CN2CC(F)(F)[C@@H]3CN([C@H]4CC[C@H](C(=O)O)CC4)C(=O)[C@@H]32)NC(c2nccs2)=N[C@H]1c1cccc(F)c1C` (single isomer, unassigned) [Compound 185B], the EC50 in data set [1] amounted to 0.0083 µM. The molecule also registered a cytotoxic concentration (CC50) at 6 days in data set [2] of 27.6 µM.
The matching figures for `CCOC(=O)C1=C(CN2CC(F)(F)[C@@H]3C(=O)N(c4ccn(CCC(C)(C)C(=O)O)n4)C[C@@H]32)NC(c2nccs2)=N[C@H]1c1cccc(F)c1C` (single isomer, unassigned) [Compound 187]: 0.0817 µM and 33.6 µM.
The corresponding values for `CCOC(=O)C1=C(CN2CC(F)(F)[C@@H]3C(=O)N(C(=O)NCC(C)(C)C(=O)O)C[C@@H]32)NC(c2nccs2)=N[C@H]1c1cccc(F)c1C` (single isomer, unassigned) [Compound 188] are 0.0624 µM and 32.1 µM.
For the molecule `CCOC(=O)C1=C(CN2CC(F)(F)[C@@H]3CN(C(=O)NCC(C)(C)C(=O)O)C(=O)[C@@H]32)NC(c2nccs2)=N[C@H]1c1cccc(F)c1C` (single isomer, unassigned) [Compound 189], the EC50 in data set [1] worked out at 0.0181 µM. For the same molecule, in data set [2], the cytotoxic concentration (CC50) at 6 days came out at 28.2 µM.
The corresponding values for `CCOC(=O)C1=C(CN2CC(F)(F)C3C(=O)N(C(=O)CC(C)(C)C(=O)O)C[C@@H]32)NC(c2nccs2)=N[C@H]1c1cccc(F)c1C` (single isomer, unassigned) [Compound 190] are 0.0043 µM and 28.7 µM.
On to `CCOC(=O)C1=C(CN2CC(F)(F)[C@@H]3CN(C(=O)CC(C)(C)C(=O)O)C(=O)[C@@H]32)NC(c2nccs2)=N[C@H]1c1cccc(F)c1C` (single isomer, unassigned) [Compound 191], for which the concentration for a half-maximal effect (EC50) in data set [1] was determined as 0.0135 µM. The molecule further came in with a CC50 at 6 days in data set [2] of 35.9 µM.
For the molecule `CCOC(=O)C1=C(CN2CC(F)(F)[C@@H]3CN([C@H]4C[C@@H](C(=O)O)C4)C(=O)[C@@H]32)NC(c2nccs2)=N[C@H]1c1cccc(F)c1C` (single isomer, unassigned) [Compound 192], in data set [1], the half-maximal effective concentration (EC50) stood at 0.0166 µM. In data set [2], this molecule returned a 50% cytotoxic concentration (CC50) at 6 days of 52.9 µM.
Consider `CCOC(=O)C1=C(CN2CC(F)(F)[C@@H]3C(=O)N(CCC(C)(C)C(=O)O)C[C@@H]32)NC(c2nccs2)=N[C@H]1c1cccc(F)c1C` (single isomer, unassigned) [Compound 193], for which the EC50 in data set [1] worked out at 0.0121 µM. The CC50 at 6 days in data set [2] was found to be 48.2 µM.
Consider `CCOC(=O)C1=C(CN2CC(F)(F)[C@@H]3CN(S(=O)(=O)[C@H]4C[C@H](C(=O)O)C4)C[C@@H]32)NC(c2nccs2)=N[C@H]1c1cccc(F)c1C` (single isomer, unassigned) [Compound 194], for which the half-maximal effective concentration (EC50) in data set [1] was determined as 0.0713 µM. The CC50 at 6 days in data set [2] amounted to 36.7 µM.
As for `CCOC(=O)C1=C(CN2CC(F)(F)[C@@H]3CN(C(C)(C)C(=O)O)C[C@@H]32)NC(c2nccs2)=N[C@H]1c1cccc(F)c1C` (single isomer, unassigned) [Compound 195], in data set [1], the EC50 was determined as 0.0403 µM. In data set [2], this molecule yielded a cytotoxic concentration (CC50) at 6 days of 96.6 µM.
In the case of `CCOC(=O)C1=C(CN2CC(F)(F)[C@@H]3CN(C4(C(=O)O)CC4)C[C@@H]32)NC(c2nccs2)=N[C@H]1c1cccc(F)c1C` (single isomer, unassigned) [Compound 196], in data set [1], the EC50 worked out at 0.0033 µM. Also, in data set [2], the half-maximal cytotoxic concentration (CC50) at 6 days was determined as 12.8 µM.
The corresponding values for `CCOC(=O)C1=C(CN2CC(F)(F)[C@@H]3CN(C4(C(=O)O)CC4)C(=O)C32)NC(c2nccs2)=N[C@H]1c1cccc(F)c1C` (single isomer, unassigned) [Compound 197] are 0.0142 µM and 26 µM.
The corresponding values for `CCOC(=O)C1=C(CN2CC(F)(F)[C@@H]3C(=O)N(C4(C(=O)O)CC4)C[C@@H]32)NC(c2nccs2)=N[C@H]1c1cccc(F)c1C` (single isomer, unassigned) [Compound 198] are 0.096 µM and 99.6 µM.
The matching figures for `CCOC(=O)C1=C(CN2CC(F)(F)[C@@H]3C(=O)N(CC4(C(=O)O)CCCC4)C[C@@H]32)NC(c2nccs2)=N[C@H]1c1cccc(F)c1C` (single isomer, unassigned) [Compound 199]: 0.0118 µM and 35.9 µM.
On to `CCOC(=O)C1=C(CN2CC(F)(F)[C@@H]3C(=O)N(CC(C)(C)c4nn[nH]n4)C[C@@H]32)NC(c2nccs2)=N[C@H]1c1cccc(F)c1C` (single isomer, unassigned) [Compound 200], for which the EC50 in data set [1] amounted to 0.0347 µM. The same molecule registered a half-maximal cytotoxic concentration (CC50) at 6 days in data set [2] of 91.3 µM.
With `CCOC(=O)C1=C(CN2CC(F)(F)[C@@H]3CN(CC(C)(C)C(=O)O)C[C@@H]32)NC(c2nccs2)=N[C@@H]1c1ccc(F)nc1C` (single isomer, unassigned) [Compound 201, 3-((cis)-1-((5-(ethoxycarbonyl)-6-(6-fluoro-2-methylpyridin-3-yl)-2-(thiazol-2-yl)-3,6-dihydropyrimidin-4-yl)methyl)-3,3-difluorohexahydropyrrolo[3,4-b]pyrrol-5(1H)-yl)-2,2-dimethylpropanoic acid], in data set [1], the EC50 was found to be 0.0726 µM. Moreover, in data set [2], the CC50 at 6 days was greater than 100 µM.
Regarding `CCOC(=O)C1=C(CN2CC(F)(F)[C@@H]3C(=O)N(CC(CC)(CC)C(=O)O)C[C@@H]32)NC(c2nccs2)=N[C@H]1c1cccc(F)c1C` (single isomer, unassigned) [Compound 202], the EC50 in data set [1] was determined as 0.023 µM. The CC50 at 6 days in data set [2] amounted to 100 µM.
Consider `CCOC(=O)C1=C(CN2C[C@@H](F)[C@@]3(F)CN(CC(C)(C)C(=O)O)C(=O)[C@@H]23)NC(c2nccs2)=N[C@H]1c1cccc(F)c1C` (single isomer, unassigned) [Compound 203A], for which, in data set [1], the EC50 is 0.0167 µM. The molecule further yielded a cytotoxic concentration (CC50) at 6 days in data set [2] of 44.6 µM.
The corresponding values for `CCOC(=O)C1=C(CN2C[C@@H](F)[C@@]3(F)C(=O)N(CC(C)(C)C(=O)O)C[C@@H]23)NC(c2nccs2)=N[C@H]1c1cccc(F)c1C` (single isomer, unassigned) [Compound 204A] are 0.0112 µM and 88.9 µM.
The corresponding values for `CCOC(=O)C1=C(CN2C[C@H](F)[C@]3(F)C(=O)N(CC(C)(C)C(=O)O)C[C@H]23)NC(c2nccs2)=N[C@H]1c1cccc(F)c1C` (single isomer, unassigned) [Compound 204B] are 0.102 µM and 72.1 µM.
The matching figures for `CCOC(=O)C1=C(CN2C[C@H](F)[C@@]3(F)C(=O)N(CC(C)(C)C(=O)O)C[C@@H]23)NC(c2nccs2)=N[C@H]1c1cccc(F)c1C` (single isomer, unassigned) [Compound 204C]: 0.0071 µM and 36.9 µM.
In the case of `CCOC(=O)C1=C(CN2C[C@@H](F)[C@]3(F)C(=O)N(CC(C)(C)C(=O)O)C[C@H]23)NC(c2nccs2)=N[C@H]1c1cccc(F)c1C` (single isomer, unassigned) [Compound 204D], the 50% effective concentration (EC50) in data set [1] worked out at 0.0004 µM. Half-maximal cytotoxicity in data set [2] (CC50 at 6 days) was put at 48.1 µM.
The matching figures for `CCOC(=O)C1=C(CN2CC(F)(F)[C@@H]3CN(S(=O)(=O)[C@H]4C[C@](C)(C(=O)O)C4)C[C@@H]32)NC(c2nccs2)=N[C@H]1c1cccc(F)c1C` (single isomer, unassigned) [Compound 205A]: 0.114 µM and greater than 50 µM.
As to `CCOC(=O)C1=C(CN2CC(F)(F)[C@@H]3CN(S(=O)(=O)[C@H]4C[C@@](C)(C(=O)O)C4)C[C@@H]32)NC(c2nccs2)=N[C@H]1c1cccc(F)c1C` (single isomer, unassigned) [Compound 205B], the EC50 in data set [1] turned out to be 0.103 µM. The molecule also yielded a 50% cytotoxic concentration (CC50) at 6 days in data set [2] greater than 50 µM.
The matching figures for `COC(=O)C1=C(CN2CC(F)(F)[C@@H]3CN(C(=O)C(C)(C)C(=O)O)C[C@@H]32)NC(c2nccs2)=N[C@H]1c1cccc(F)c1Cl` (single isomer, unassigned) [Compound 206, 3-((cis)-1-((6-(2-chloro-3-fluorophenyl)-5-(methoxycarbonyl)-2-(thiazol-2-yl)-3,6-dihydropyrimidin-4-yl)methyl)-3,3-difluorohexahydropyrrolo[3,4-b]pyrrol-5(1H)-yl)-2,2-dimethyl-3-oxopropanoic acid]: 0.0393 µM and greater than 100 µM.

What is called EC50 is the concentration giving half of the maximal effect. One may read the CC50 as the concentration that lowers cell viability or growth by half. Low readings indicate harm at low concentration, high ones better tolerance by the cells.
